Test: Release from two-component films with barrier layers
Format: physicochemical
Text: In one exemplary embodiment, a range of strategies were employed to control the relative positions of multiple, labeled species within a single film by constructing physical barriers to separate the two components. In one embodiment, films were constructed containing 20-40 base layers of polymer 1/HEP, followed by a set of “barrier” layers including polymer 1/SPS (degradable), PDAC/SPS (non-degradable), thermally cross-linked PAH/PAA, or nothing at all, followed by 20-40 surface layers of polymer 1/DS (FIG. 18). A similar set of films was also constructed, but with the order of the labeled components reversed (e.g., DS base layers and HEP surface layers).
Thus, the use of a single covalently cross-linked PAH/PAA layer was sufficient to separate the two components when deposited onto the surface of the linearly growing polymer 1/DS system, as evidenced by the two-stage release profile. Following a delay of approximately 25 h, the underlying DS was released with a linear profile.
FIG. 27A illustrates the effect of barrier layers on the average release rate from the exemplary two-component systems described above. It is apparent that the average release rate (taken as the average slope of the initial, linear portion of the release curve) of systems including of an underlying layer of linearly-growing DS can be broadly controlled using both multiple layers of a nondegradable system PDAC/SPS or as little as a single layer of cross-linked PAH/PAA. Further, by tuning any of the parameters affecting the degree of cross-linking (e.g., cross-linking time, temperature, number of cross-linked layers), the release rate can be dramatically altered. […] Thus, milder cross-linking conditions (e.g., lower temperatures) may allow for a greater degree of flexibility in tailoring release profiles. Further, aqueous, chemical cross-linking techniques using common biochemical reagents such as carbodiimides may represent a suitable alternative to thermal cross-linking when low temperature fabrication is required. Nevertheless, one skilled in the art will recognize that a range of approaches may be employed to control the release of underlying species, particularly when the underlying species lacks the ability to diffuse throughout the film.
General Considerations. A Harrick PDC-32G plasma cleaner was used to etch silicon substrates (3 cm×2 cm) following rinsing with methanol and deionized water and drying under a stream of dry nitrogen. Layer-by-layer thin films were deposited using an automated Carl Zeiss HMS Series Programmable Slide Stainer. Absorbances from growing films were measured using Fourier Transform Infrared Spectroscopy (FTIR) using a Nicolet Magna IR 550 Series II Spectrometer. Zinc selenide substrates used for transmission FTIR analysis were prepared using the same method employed for silicon substrates, Ellipsometric measurements for film thickness were conducted using a Gaertner Variable Angle Ellipsometer ([…], 70° incident angle) and Gaertner Ellipsometer Measurement Program (GEMP) Version 1.2 software interface. The release of radiolabeled polymers was quantified using a Tri-carb liquid scintillation counter (Model U2200). […] (PAH/PAA) films were thermally cross-linked by incubating films in a Yamoto DVS400 gravity convection oven at 215° C. for indicated time intervals.
Release Studies. For drug release experiments, radiolabeled LbL thin films were first constructed by alternately depositing polymer 1 and the indicated radiolabeled drug(s). Radiolabled deposition solutions containing ^3H-heparin were prepared by combining 1 mL of 50 μCi/mL ^3H-heparin (0.30 mCi/mg, Mn=12500) with 35 mL of 100 mM acetate buffer. Unlabeled heparin (Mn=12500) was added to bring the total concentration of heparin (unlabeled plus labeled) to 2 mg/mL (1.5-2 μCi/mL ^3H). […]

[1] = DS base layer, heparin surface layer, 50 (PDAC/SPS) non-degradable dividing layers
[2] = DS base layer, heparin surface layer, 50 (Poly1/SPS) degradable dividing layers
[3] = DS base layer, heparin surface layer, separated by a single cross-linked layer of (PAH/PAA)
[4] = DS base layer, heparin surface layer, without dividing layers
[5] = heparin base layer, DS surface layer, (PDAC/SPS)50 non-degradable dividing layers
[6] = heparin base layer, DS surface layer, (Poly1/SPS)20 degradable dividing layers
[7] = heparin base layer, DS surface layer, without dividing layers
[8] = polymer 1/DS base, single PAH/PAA bilayer cross-linked 20 min at 215° C., polymer 1/HEP surface

| release pattern [1] | release pattern [2] | release pattern [3] | release pattern [4] | change in release rate (cross-linking times greater than 1.5 h at 215° C., or barriers with more than five cross-linked layers (data not shown)) | release pattern [5] | release pattern [6] | release pattern [7] | release of underlying DS (multiple layers of PAH/PAA cross-linked longer than 1.5 h at 215° C., up to 45 days) | average rate of DS release, slower than in corresponding films without covalently cross-linked barrier layers [8] | delay before release of underlying DS [8] | effect of barrier layer on release of heparin (heparin-loaded films coated with a single layer of (PAH/PAA) cross-linked 45 min at 215° C. vs untreated films) | Substance |
| --- | --- | --- | --- | --- | --- | --- | --- | --- | --- | --- | --- | --- |
| simultaneous release | simultaneous release | sequential release | simultaneous release | one to two order of magnitude decreases | simultaneous release | simultaneous release | simultaneous release | no release of DS was observed | approximately 60% | approximately 25 h |  | Dextran sulfate sodium salt [DS] |
| simultaneous release | simultaneous release | sequential release | simultaneous release |  | simultaneous release | simultaneous release | simultaneous release |  |  |  | does not significantly delay | Heparin sodium salt |
